Measured values from the supplement of paper PMC11451515.

System: NOMO1
Assay: cell viability relative to DMSO control; higher = less cytotoxic
Conditions: 48 h
Method in brief: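 Viability is a per-plate percentage relative to DMSO wells, with cell-free wells as background. CellTiter-Glo One luminescence was read after 48 h at 37°C on 1536-well plates (5 μl) of NOMO1 or SEM (500 cells/well) or P12-Ichikawa (1000 cells/well) leukemia cells. The cells had been adapted for at least four passages in each medium and pin-dosed with library compounds in DMSO from 47 μM to 0.79 nM in 11 threefold steps.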

[1] = HPLM + 10% dialyzed FBS, 0.000781 µM
[2] = HPLM + 10% dialyzed FBS, 0.00234 µM
[3] = HPLM + 10% dialyzed FBS, 0.00702 µM
[4] = HPLM + 10% dialyzed FBS, 0.0211 µM
[5] = HPLM + 10% dialyzed FBS, 0.0632 µM
[6] = HPLM + 10% dialyzed FBS, 0.19 µM
[7] = HPLM + 10% dialyzed FBS, 0.569 µM
[8] = HPLM + 10% dialyzed FBS, 1.71 µM
[9] = HPLM + 10% dialyzed FBS, 5.12 µM
[10] = HPLM + 10% dialyzed FBS, 15.4 µM
[11] = HPLM + 10% dialyzed FBS, 46.1 µM
[12] = RPMI 5 mM glucose + 10% FBS, 0.000781 µM
[13] = RPMI 5 mM glucose + 10% FBS, 0.00234 µM
[14] = RPMI 5 mM glucose + 10% FBS, 0.00702 µM
[15] = RPMI 5 mM glucose + 10% FBS, 0.0211 µM
[16] = RPMI 5 mM glucose + 10% FBS, 0.0632 µM
[17] = RPMI 5 mM glucose + 10% FBS, 0.19 µM
[18] = RPMI 5 mM glucose + 10% FBS, 0.569 µM
[19] = RPMI 5 mM glucose + 10% FBS, 1.71 µM
[20] = RPMI 5 mM glucose + 10% FBS, 5.12 µM
[21] = RPMI 5 mM glucose + 10% FBS, 15.4 µM
[22] = RPMI 5 mM glucose + 10% FBS, 46.1 µM
[23] = RPMI 5 mM glucose + 10% dialyzed FBS, 0.000781 µM
[24] = RPMI 5 mM glucose + 10% dialyzed FBS, 0.00234 µM
[25] = RPMI 5 mM glucose + 10% dialyzed FBS, 0.00702 µM
[26] = RPMI 5 mM glucose + 10% dialyzed FBS, 0.0211 µM
[27] = RPMI 5 mM glucose + 10% dialyzed FBS, 0.0632 µM
[28] = RPMI 5 mM glucose + 10% dialyzed FBS, 0.19 µM
[29] = RPMI 5 mM glucose + 10% dialyzed FBS, 0.569 µM
[30] = RPMI 5 mM glucose + 10% dialyzed FBS, 1.71 µM
[31] = RPMI 5 mM glucose + 10% dialyzed FBS, 5.12 µM
[32] = RPMI 5 mM glucose + 10% dialyzed FBS, 15.4 µM
[33] = RPMI 5 mM glucose + 10% dialyzed FBS, 46.1 µM

| SMILES | cell viability [1] [%] | cell viability [2] [%] | cell viability [3] [%] | cell viability [4] [%] | cell viability [5] [%] | cell viability [6] [%] | cell viability [7] [%] | cell viability [8] [%] | cell viability [9] [%] | cell viability [10] [%] | cell viability [11] [%] | cell viability [12] [%] | cell viability [13] [%] | cell viability [14] [%] | cell viability [15] [%] | cell viability [16] [%] | cell viability [17] [%] | cell viability [18] [%] | cell viability [19] [%] | cell viability [20] [%] | cell viability [21] [%] | cell viability [22] [%] | cell viability [23] [%] | cell viability [24] [%] | cell viability [25] [%] | cell viability [26] [%] | cell viability [27] [%] | cell viability [28] [%] | cell viability [29] [%] | cell viability [30] [%] | cell viability [31] [%] | cell viability [32] [%] | cell viability [33] [%] |
| --- | --- | --- | --- | --- | --- | --- | --- | --- | --- | --- | --- | --- | --- | --- | --- | --- | --- | --- | --- | --- | --- | --- | --- | --- | --- | --- | --- | --- | --- | --- | --- | --- | --- |
| Cc1coc2c1C(=O)C(=O)c1c-2ccc2c1CCCC2(C)C | 111 | 98.8 | 126 | 118 | 107 | 105 | 92.9 | 95.5 | 82 | 105 | 96.8 | 89.8 | 98.7 | 96.8 | 104 | 116 | 103 | 99.9 | 83.5 | 83.5 | 95.1 | 90.8 | 97.4 | 104 | 95.7 | 98.9 | 103 | 88.8 | 88.4 | 87.5 | 88.4 | 92.5 | 93.1 |
| COc1ccc(C(=O)c2c(C)n(CCN3CCOCC3)c3cc(I)ccc23)cc1 |  |  |  |  |  |  |  |  |  |  |  | 105 | 112 | 126 | 133 | 138 | 122 | 119 | 29.9 | 27.1 | 24.9 | 21.1 | 100 | 115 | 124 | 116 | 130 | 126 | 137 | 52.3 | 29.1 | 27.4 | 23.3 |
| CC(N[C@H]1CCCC[C@@H]1NC(=O)c1ccc(Cl)cc1)c1cccc2ccccc12 (stereo partly drawn) | 117 | 131 | 112 | 127 | 113 | 110 | 139 | 86.3 | 83 | 28 | 29.5 | 100 | 107 | 120 | 114 | 110 | 113 | 114 | 102 | 105 | 19.9 | 18.2 | 102 | 108 | 113 | 112 | 111 | 117 | 103 | 103 | 107 | 25.4 | 24.2 |
| CNCC[C@H](Oc1cccc2ccccc12)c1cccs1 | 117 | 119 | 145 | 116 | 134 | 117 | 130 | 123 | 90.8 | 41.5 | 26.5 | 108 | 122 | 122 | 116 | 120 | 112 | 124 | 110 | 116 | 44.5 | 26.3 | 105 | 127 | 116 | 119 | 137 | 113 | 112 | 114 | 121 | 46.7 | 27.4 |
| O=C(c1ccccc1)c1ccc2n1CCC2C(=O)O (stereo not drawn) |  |  |  |  |  |  |  |  |  |  |  | 121 | 113 | 125 | 130 | 108 | 122 | 120 | 110 | 111 | 115 | 98.6 | 107 | 115 | 110 | 121 | 125 | 108 | 116 | 115 | 97.4 | 103 | 107 |
